{"source": "patent US20230348418A1", "about": "“ISOINDOLINONE COMPOUNDS” (Monte Rosa Therapeutics, Inc., priority 2021, published 2023)", "key": {"NCI-H1770": {"test_system": "NCI-H1770", "test": "N-Myc-driven mouse xenograft model, human cell line NCI-H1770 (FIG. 3C)", "format": "in vivo"}, "SALL4": {"molecular_target": "T1, SALL4 (Homo sapiens, UniProt Q9UJQ4)", "T1 construct": "endogenous in cells", "T1 sequence (Q96SW2 whole entry partner)": "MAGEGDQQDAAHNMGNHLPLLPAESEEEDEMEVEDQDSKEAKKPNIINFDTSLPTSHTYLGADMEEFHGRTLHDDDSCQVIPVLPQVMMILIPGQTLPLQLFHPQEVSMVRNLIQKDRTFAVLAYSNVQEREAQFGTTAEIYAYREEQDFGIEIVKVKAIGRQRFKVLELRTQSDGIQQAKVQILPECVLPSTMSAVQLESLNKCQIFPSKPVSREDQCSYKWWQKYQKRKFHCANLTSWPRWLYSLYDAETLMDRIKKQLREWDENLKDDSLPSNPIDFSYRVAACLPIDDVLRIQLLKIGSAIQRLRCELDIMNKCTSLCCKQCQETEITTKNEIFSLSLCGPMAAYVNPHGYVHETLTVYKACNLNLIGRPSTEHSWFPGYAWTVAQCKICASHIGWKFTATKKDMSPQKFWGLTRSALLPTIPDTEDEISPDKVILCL", "T1 sequence (Q16531 2-1140 partner limits assumed)": "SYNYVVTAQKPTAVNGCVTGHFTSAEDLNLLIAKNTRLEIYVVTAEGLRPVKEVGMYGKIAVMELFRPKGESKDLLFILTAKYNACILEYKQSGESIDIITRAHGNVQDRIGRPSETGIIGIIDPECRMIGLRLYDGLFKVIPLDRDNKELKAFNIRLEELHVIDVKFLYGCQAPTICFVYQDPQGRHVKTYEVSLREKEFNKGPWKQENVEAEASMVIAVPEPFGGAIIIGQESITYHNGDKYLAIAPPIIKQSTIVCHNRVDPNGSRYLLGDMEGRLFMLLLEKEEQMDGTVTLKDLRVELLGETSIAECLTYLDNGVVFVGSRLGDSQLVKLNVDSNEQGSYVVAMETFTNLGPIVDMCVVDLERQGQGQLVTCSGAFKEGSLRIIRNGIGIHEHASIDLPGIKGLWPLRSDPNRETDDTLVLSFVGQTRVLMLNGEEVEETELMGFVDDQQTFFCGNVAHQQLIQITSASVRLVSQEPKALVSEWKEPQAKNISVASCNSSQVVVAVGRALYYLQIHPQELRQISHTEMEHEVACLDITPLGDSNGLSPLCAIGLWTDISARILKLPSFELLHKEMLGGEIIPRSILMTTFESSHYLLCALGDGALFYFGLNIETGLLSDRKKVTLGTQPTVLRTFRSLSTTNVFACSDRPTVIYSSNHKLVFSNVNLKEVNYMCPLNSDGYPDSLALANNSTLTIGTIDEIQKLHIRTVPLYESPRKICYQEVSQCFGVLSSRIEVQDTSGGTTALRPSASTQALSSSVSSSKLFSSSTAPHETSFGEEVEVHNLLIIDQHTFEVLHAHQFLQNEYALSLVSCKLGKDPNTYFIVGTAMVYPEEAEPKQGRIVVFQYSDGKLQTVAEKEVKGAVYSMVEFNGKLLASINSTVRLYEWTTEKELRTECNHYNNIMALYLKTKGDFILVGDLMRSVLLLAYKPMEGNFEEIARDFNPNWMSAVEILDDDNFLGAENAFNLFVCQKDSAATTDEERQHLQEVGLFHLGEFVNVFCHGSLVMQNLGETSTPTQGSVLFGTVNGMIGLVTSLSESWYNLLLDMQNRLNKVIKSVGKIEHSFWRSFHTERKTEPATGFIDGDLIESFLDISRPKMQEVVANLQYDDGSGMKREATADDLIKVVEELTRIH", "T1 sequence (Q9UJQ4 whole entry)": "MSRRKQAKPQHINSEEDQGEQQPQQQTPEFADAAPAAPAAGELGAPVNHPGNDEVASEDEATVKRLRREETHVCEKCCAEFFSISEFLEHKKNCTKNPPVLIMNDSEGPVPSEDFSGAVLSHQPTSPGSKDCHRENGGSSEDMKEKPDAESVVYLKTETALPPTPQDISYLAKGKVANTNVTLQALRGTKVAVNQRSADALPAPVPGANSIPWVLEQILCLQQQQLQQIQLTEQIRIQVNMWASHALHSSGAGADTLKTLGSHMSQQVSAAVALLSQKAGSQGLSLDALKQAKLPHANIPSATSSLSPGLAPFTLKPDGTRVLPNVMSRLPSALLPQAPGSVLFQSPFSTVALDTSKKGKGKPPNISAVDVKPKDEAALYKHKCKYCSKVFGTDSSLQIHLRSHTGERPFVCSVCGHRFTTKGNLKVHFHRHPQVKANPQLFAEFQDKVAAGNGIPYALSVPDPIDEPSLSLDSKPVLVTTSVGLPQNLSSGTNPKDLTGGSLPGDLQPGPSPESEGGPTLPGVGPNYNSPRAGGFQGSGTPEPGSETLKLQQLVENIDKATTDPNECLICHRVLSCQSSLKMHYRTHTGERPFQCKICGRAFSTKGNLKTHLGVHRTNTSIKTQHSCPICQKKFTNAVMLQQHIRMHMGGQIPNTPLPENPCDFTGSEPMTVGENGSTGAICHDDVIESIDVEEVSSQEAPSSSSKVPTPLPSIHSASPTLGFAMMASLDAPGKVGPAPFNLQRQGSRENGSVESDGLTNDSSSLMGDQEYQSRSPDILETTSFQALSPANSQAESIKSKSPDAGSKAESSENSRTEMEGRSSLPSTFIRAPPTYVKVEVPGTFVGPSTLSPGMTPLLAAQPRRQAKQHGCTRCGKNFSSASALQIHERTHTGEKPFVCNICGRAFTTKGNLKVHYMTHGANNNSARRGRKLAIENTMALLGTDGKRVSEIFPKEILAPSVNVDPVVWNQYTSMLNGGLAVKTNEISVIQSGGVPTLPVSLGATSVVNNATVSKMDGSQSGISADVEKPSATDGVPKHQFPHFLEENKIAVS", "test": "SALL4 degradation in treated cells (FIG. 1A)", "format": "cell-based", "conditions": "concentrations up to 30 µM"}, "GSPT1 [1]": {"molecular_target": "T2, GSPT1 (Homo sapiens, UniProt P15170+Q96SW2)", "T2 sequence (P15170 whole entry)": "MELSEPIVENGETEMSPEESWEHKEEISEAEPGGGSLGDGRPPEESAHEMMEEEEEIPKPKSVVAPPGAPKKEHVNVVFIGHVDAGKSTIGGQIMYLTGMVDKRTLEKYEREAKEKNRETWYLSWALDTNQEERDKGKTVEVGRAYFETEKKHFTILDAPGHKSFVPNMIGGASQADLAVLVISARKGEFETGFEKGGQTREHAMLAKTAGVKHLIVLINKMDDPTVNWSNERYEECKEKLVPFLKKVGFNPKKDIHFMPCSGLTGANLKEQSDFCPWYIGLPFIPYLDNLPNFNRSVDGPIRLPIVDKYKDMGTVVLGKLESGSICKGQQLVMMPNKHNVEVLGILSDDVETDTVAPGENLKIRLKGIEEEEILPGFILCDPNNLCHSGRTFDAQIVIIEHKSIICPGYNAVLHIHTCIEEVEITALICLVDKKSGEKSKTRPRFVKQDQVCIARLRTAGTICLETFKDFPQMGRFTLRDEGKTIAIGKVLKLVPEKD", "T2 sequence (Q96SW2 whole entry)": "as the sequence (Q96SW2 whole entry partner) above", "T2 sequence (Q16531 2-1140 partner limits assumed)": "as the sequence (Q16531 2-1140 partner limits assumed) above", "test": "GSPT1 levels by western blotting/densitometry in NSCLC cell lines NCI-H1155 and ABC-1", "format": "cell-based", "procedure": "(§1) The anti-proliferative activity of compound 10 was tested on representative N-Myc high and N-Myc low cell lines (NCI-H1155, ABC-1 and EBC-1, NCI-H2023, respectively) following treatment with compound for 72 hours. Cells were sub-cultures as recommended by the providers (ATCC, DSMZ) and incubated at 37° C., 5% CO2. All cells were authenticated and confirmed by Short Tandem Repeat (STR) profiling. Briefly, cells were seeded to the appropriate density to allow logarithmic growth over the assay period in 96-well opaque-walled clear bottom plates (from Corning, Cat. No. 3903, Lot. No. 16419061; 100 μL total volume) and incubated overnight. […] Cell viability was assessed using the CellTiter-Glo assay kit as recommended by the Manufacturer (Promega, Cat. No. G7558, Lot. No. 0000385738) and measurements performed on the EnSpire multimode plate reader (Perkin Elmer). EC50 values were determined using Prism8 (GraphPad) and the asymmetric (five-parameter) equation and least squares fit. GSPT1 levels were assessed in the NCI-H1155 and ABC-1 cell lines by densitometry analysis following treatment with compound 10 for 6 hours and western blotting analysis. […] For chemiluminescence and colorimetric signals “optimal automatic exposure” settings (3×3 binning) were employed while fluorescence was detected using 1-4 seconds exposure time to achieve best GAPDH signals and avoid overexposure. […]"}, "NCI-H526": {"test_system": "NCI-H526", "test": "N-Myc-driven mouse xenograft model, human cell line NCI-H526 (FIG. 3D)", "format": "in vivo"}, "GSPT1 [2]": {"molecular_target": "T2, GSPT1", "test": "relative levels of GSPT1 versus concentration (FIG. 2B)", "format": "cell-based", "set-up": "endogenous in cells; host or cells: MM1S (ATCC CRL-2974)", "conditions": "cell line not named", "procedure": "GSPT1 was degraded by compound 10 after six hours of treatment in high N-Myc NCI-H1155 and ABC-1 cells with a DC50 of 3 nM and 22 nM, respectively (x-axys represents […]M concentration of compound 10; y-axis represents the viability in %)."}, "[3]": {"test_system": "NCI-H1155 cells (human non small cell lung cancer)", "test": "NCI-H1155 xenograft study", "format": "in vivo, BALB/c nude mice", "procedure": "For the NCI-H1155 xenograft study, cells (human non small cell lung cancer, ATCC CRL-5818) were maintained in vitro as suspension culture in ATCC-formulated DMEM:F12 Medium supplemented as recommended by the provider and kept at 37° C. in an atmosphere of 5% CO2 in air. Cells (0.5 millions) were resuspended in 0.2 mL of PBS with Matrigel (50:50) and inoculated into female BALB/c nude mice, 6-8 weeks old, and allowed to grow to 150 mm^3 in size. Mice were dosed orally with either vehicle or compound 10 at 1 or 3 mg per kilogram daily (filled squares and filled triangles, respectively) or 6 mg per kilogram for 5 continuous days followed by 9 days treatment holidays (5 On-9 off) (filled inverted triangles). Compound formulations were prepared fresh daily in 5% vDMSO/95%(30% w/v HP-β-CD in water). Gemcitabine dosed at 40 mg per kilogram, IP, Q4Dx5 was used as a positive control (filled rhombi). For this study, mice were dosed for 21 days with tumor volumes measured every 3 days."}, "NCI-H1155": {"test_system": "NCI-H1155", "test": "N-Myc-driven mouse xenograft model, human cell line NCI-H1155 (FIG. 3A)", "format": "in vivo"}, "[4]": {"test_system": "NCI-H1155, ABC-1 and EBC-1, NCI-H2023 cell lines", "test": "Viability assay (CellTiter-Glo) in N-Myc high and N-Myc low NSCLC cell lines", "format": "cell-based", "conditions": "72 hours", "procedure": "as §1"}, "[5]": {"conditions": "6 mg/kg PO, five days on and nine days off"}}, "data": [{"smiles": "Cc1ccc(NC(=O)OCc2ccc3c(c2)C(=O)N(C2CCC(=O)NC2=O)C3)cc1Cl", "note": "(centres unmarked) [Compound 10]", "values": [{"measurement": "tumor size (tumor volume)", "setting": "NCI-H1770; 3 mg/kg once daily, PO", "value": "tumor size decreased and remained so until the end of the study"}, {"measurement": "tumor size (tumor volume)", "setting": "NCI-H1770; [5]", "value": "tumor size decreased and remained so until the end of the study"}, {"measurement": "body weight", "setting": "NCI-H1770; oral administration, NCI-H1770 xenograft", "value": "no body weight loss observed"}, {"measurement": "tumor growth (tumor volume)", "setting": "NCI-H1770; oral administration, NCI-H1770 xenograft, overall", "value": "tumor growth inhibition"}, {"measurement": "degradation of SALL4", "setting": "SALL4", "value": "no induction of degradation"}, {"measurement": "Concentration dependence of GSPT1 degradation (FIG. 2B)", "setting": "GSPT1 [1]; NCI-H1155 and ABC-1 cells", "value": "Degradation took place in a concentration dependent manner"}, {"measurement": "extent of GSPT1 degradation", "setting": "GSPT1 [1]; high N-Myc NCI-H1155 and ABC-1 cells, six hours of treatment", "value": "Complete degradation of GSPT1"}, {"measurement": "tumor size (tumor volume)", "setting": "NCI-H526; 3 mg/kg once daily, PO", "value": "tumor size decreased and remained so until the end of the study"}, {"measurement": "tumor size (tumor volume)", "setting": "NCI-H526; [5]", "value": "tumor size decreased and remained so until the end of the study"}, {"measurement": "body weight", "setting": "NCI-H526; oral administration, NCI-H526 xenograft", "value": "no body weight loss observed"}, {"measurement": "tumor growth (tumor volume)", "setting": "NCI-H526; oral administration, NCI-H526 xenograft, overall", "value": "tumor growth inhibition"}, {"measurement": "GSPT1 degradation versus concentration", "setting": "GSPT1 [2]", "value": "concentration dependent manner"}, {"measurement": "Tumor growth (FIG. 3A)", "setting": "[3]; 1 mg/kg once daily, oral", "value": "tumor growth was suppressed for two weeks"}, {"measurement": "Tumor size (FIG. 3A)", "setting": "[3]; 3 mg/kg once daily, oral", "value": "tumor size decreased, became undetectable by day eight and remained so until the end of the study at day 21"}, {"measurement": "Tumor size (FIG. 3A)", "setting": "[3]; 6 mg/kg dosed for five days on and nine days off, oral", "value": "tumor size decreased, became undetectable by day eight and remained so until the end of the study at day 21"}, {"measurement": "body weight", "setting": "[3]; oral administration, NCI-H1155 xenograft mice", "value": "no body weight loss observed"}, {"measurement": "Tumor growth (FIG. 3A)", "setting": "[3]; oral administration, all dose groups", "value": "tumor growth inhibition"}, {"measurement": "tumor growth (tumor volume)", "setting": "NCI-H1155; 1 mg/kg once daily, PO", "value": "tumor growth was suppressed for two weeks"}, {"measurement": "tumor size (tumor volume)", "setting": "NCI-H1155; 3 mg/kg once daily, PO", "value": "tumor size decreased, became undetectable by day eight and remained so until the end of the study at day 21"}, {"measurement": "tumor size (tumor volume)", "setting": "NCI-H1155; [5]", "value": "tumor size decreased, became undetectable by day eight and remained so until the end of the study at day 21"}, {"measurement": "body weight", "setting": "NCI-H1155; oral administration, NCI-H1155 xenograft", "value": "no body weight loss observed"}, {"measurement": "tumor growth (tumor volume)", "setting": "NCI-H1155; oral administration, NCI-H1155 xenograft, overall", "value": "tumor growth inhibition"}, {"measurement": "Sensitivity (anti-proliferative activity) versus N-Myc expression (FIG. 2A)", "setting": "[4]", "value": "sensitivity correlated with the expression of N-Myc"}]}]}
